In patent US6896895B2, “Carotenoid esters, carotenoid-enriched feeds, and methods of pigmenting foods and foodstuffs” (DSM IP Assets B.V., priority 2000, dated 2005):

What was measured:
[1] = Carotenoid ester content and deposition rate in egg yolk of laying hens (HPLC); type: in vivo, laying hens (ISA Brown); settings: egg yolk; for Deposition Rate Target Values % of Controls / Ethyl β-apo-8′-carotenoate Equivalents % of Controls: Table 8; for Deposition Rate % of Controls: Table 10
Description: (§1) Pigmentation efficacy was assessed in egg yolk, in the back skin of the broiler carcass, and in broiler shanks by reflectance colorimetry accompanied by visual scoring (Roche Colour Fan). The deposition of the ethyl-β-apo-8′-carotenoate (control) and the other carotenoid esters was determined in egg yolk and in the broiler back skin. In addition, the carotenoid levels in plasma and abdominal fat were measured.
Each year in February the pigmentation trials are started with a new flock of layers.
(§2) Preceding the trials the hens were fed a low carotenoid basal diet (produced at the CRNA) without carotenoid supplementation for at least 28 days. During the trials, the control group received the low carotenoid basal diet containing less than 2 mg total xanthophylls per kg of feed. The other animals were fed this diet supplemented with the appropriate pigments for three weeks. The diet was given to the animals ad libitum in mash form. The hens had free access to tap water.
Peaks were related to all-E- and Z-isomers of the various carotenoid esters by chromatography of heat-isomerized solutions of the respective reference substances in n-hexane. The HPLC system was calibrated with the all-E-isomer of ethyl β-apo-8′-carotenoate. The response factor of the various derivatives was deduced from that of ethyl β-apo-8′-carotenoate taking into account the respective molecular weight. The content of the Z-isomer fractions was calculated based on the response of the all-E-isomer and using a correction factor of 1.4 to account for the lower specific absorbance of the Z-isomers.
(§3) The HPLC-system for in-feed analysis was also used to quantify the carotenoid esters in egg yolk, broiler tissues, and broiler plasma, but the extraction procedure was different for the various matrices.
For the extraction of egg yolk, 10 g of pooled and homogenised yolk were mixed with 10 ml of demineralized water using a dispersion instrument (Polytron). 1.0 g of diluted egg yolk was introduced into a 10 ml test tube with 1.0 ml of demineralized water and 2.0 ml of ethanol, and the contents were mixed on a Vortex shaker. After addition of 4.0 ml of n-hexane, the mixture was further treated as described for plasma.

[2] = Carotenoid ester content in plasma, back skin and abdominal fat of broilers (HPLC); type: in vivo, broiler chickens (Ross 308, Ross 508); settings: average over doses, Table 4
Description: as §1
(§4) The trials were carried out using chickens of the type Ross 308 (trials MC-24/98 and MC-02/99) and Ross 508 (trials MC-11/99, MC-16/99, MC-24/99, and MC-03/00) (Couvir de la Bohardière, F-49290 Saint Laurent de la Plaine). One-day old broiler chickens, separated by sex, were divided by weight into experimental groups of ten animals each and reared in floor pens littered with wood shavings. The chickens were fed a low carotenoid basal grower diet until day 22 (trials MC-24/98, MC-02/99, and MC-11/99) or until day 15 (trials MC-16/99, MC-24/99, and MC-03/00). The low carotenoid basal grower diet contained less than 2 mg total xanthophylls per kg of feed, and its composition is described in Table 2. For the subsequent experimental period of three weeks, the birds received the basal diet supplemented with an appropriate pigment. The feed was given in the form of crumbled pellets during the first week and as pellets thereafter. The animals had unrestricted access to feed and water. A given treatment involved one group of male and one group of female chickens. Each group of chickens was weighed at day 22 (trials MC-24/98, MC-02/99, and MC-11/99) or day 15 (trials MC-16/99, MC-24/99, and MC-03/00) and on day 43. On day 42, five chickens per group were selected at random, labelled, and blood samples were taken from the jugular vein. At the end of the experiment (day 44) the animals were slaughtered in a commercial slaughterhouse (Freyburger, Dannemarie, France). The following day, the color of the skin (hind back of carcasses) and the shanks of the labelled chicken were measured by reflectance colorimetry (Minolta CR 200 apparatus, CIE-Lab system). Samples of the dorsal skin and abdominal fat were obtained, pooled for each experimental group, and the carotenoid concentration was determined. The concentration of carotenoids in feed, plasma, skin, and abdominal fat was determined by standard procedures as described after Tables 1 and 2.
The content of the various carotenoid esters in feed was determined according to the method of Schierle, et al. (J. Schierle , N. Faccin, V. Riegert, Analytical Methods for Vitamins and Carotenoids in Feed, Revised supplement: Determination of Stabilized Apocarotenoic Ester and Canthaxanthin in Premixes and Feeds, Roche publication no. 50771 (1995), publicly available from. F. Hoffmann-La Roche Ltd., CH-4070 Basel). This method was modified in that the mobile phase of the normal-phase HPLC contained 0.5% instead of 7% acetone in n-hexane, improving the separation of the E/Z-isomers of the carotenoid esters. Peaks were related to all-E- and Z-isomers of the various carotenoid esters by chromatography of heat-isomerized solutions of the respective reference substances in n-hexane. The HPLC system was calibrated with the all-E-isomer of ethyl β-apo-8′-carotenoate. The response factor of the various derivatives was deduced from that of ethyl β-apo-8′-carotenoate taking into account the respective molecular weight. The content of the Z-isomer fractions was calculated based on the response of the all-E-isomer and using a correction factor of 1.4 to account for the lower specific absorbance of the Z-isomers.
as §3
For plasma extraction, 1.0 g of the well-mixed plasma sample was introduced into a 10 ml test tube with 1.0 ml of demineralized water and 4.0 ml of ethanol, and the contents mixed on a Vortex shaker. […]

egg yolk = assay: Egg yolk colour: reflectance colorimetry and Roche Yolk Colour Fan; type: in vivo, laying hens (ISA Brown); settings: egg yolk, laying hens, 5.0 mg/kg feed
Description: as §1
The trials were carried out following the standard experimental design used for egg yolk pigmentation trials at the Roche Research Center for Animal Nutrition (CRNA, F-68305 Village-Neuf, France). Each year in February the pigmentation trials are started with a new flock of layers. At the beginning of the trials the age of the laying hens (192 birds, type ‘ISA Brown’) were as follows:
as §2, with “water. Beside the unsupplemented control treatment, treatments were carried out involving the provision of supplemented feed, the results of these treatments being presented in Tables 7-9.” for “water.”
Egg yolk color was assessed as described by Steinberg, et al. (Arch. Geflügelk 64 (4), 180-187 (2000)). The yolks were manually separated from the whites of the eggs. The isolated yolks of three to six eggs were combined, weighed, and stirred with a glass rod until the color appeared homogeneous. The color hue was visually scored using the Roche Yolk Colour Fan (RYCF, version 1993). An aliquot of the pooled egg yolks was transferred into a glass cuvette yielding an approximately 2 cm thick layer. The color was then measured by means of a Dr. Lange Xeno Color LS 100 spectro-colorimeter with diffuse D65-illumination and a 8° viewing angle.
(§5) The color data were expressed as CIE L*a*b*-values including h*(hue) and C* (chroma). The values given in the tables per treatment and trial represent averages of color measurements of four egg yolk pools, ten broiler back skins, or ten broiler shanks (5 males and 5 females).

[3] = tested on: skin and shanks of broilers; assay: Reflectance colorimetry and visual classification of skin and shanks of broilers; type: in vivo, broiler chickens (Ross 308, Ross 508); parameters: key to Shanks Visual Classification / Skin Visual Classification: −; (+); +; ++ = good color; o = orange; settings: dry carcasses, average over doses, Table 6
Description: as §1, §4
The color of broiler skin and shanks was measured using a tristimulus Minolta CR-300 Chromameter with diffuse D65-illumination and a 0° viewing angle. The color of the skin was read at three different points on the back of the dry broiler carcasses and average values of the triple measurements were recorded. The color of shanks was measured using single measurements at the ball between the toes.
as §5

| SMILES | Deposition Rate Target Values % of Controls ([1]; trial H-25/99, 5.0 mg/kg feed) [%] | Ethyl β-apo-8′-carotenoate Equivalents % of Controls ([1]; trial H-25/99, 5.0 mg/kg feed) [%] | Deposition Rate % of Controls ([1]; trial H-25/99, 5.0 mg/kg feed) [%] | Analytical Content as Equivalent of Ethyl β-apo-8′-carotenoate in % of control Fat [2] [%] | Analytical Content as Equivalent of Ethyl β-apo-8′-carotenoate in % of control Plasma [2] [%] | Analytical Content as Equivalent of Ethyl β-apo-8′-carotenoate in % of control Skin [2] [%] | Color Fan Value % of Controls (egg yolk; trial H-25/99, Table 8) [%] | Chroma C*ab % of Controls (egg yolk; trial H-25/99, Table 10) [%] | Color Fan Value % of Controls (egg yolk; trial H-25/99, Table 10) [%] | Color Hue h*ab % of Controls (egg yolk; trial H-25/99, Table 10) [%] | Shanks Chroma C*ab % of Controls [3] [%] | Shanks Color Hue h*ab % of Controls [3] [%] | Shanks Visual Classification [3] | Skin Chroma C*ab % of Controls [3] [%] | Skin Color Hue h*ab % of Controls [3] [%] | Skin Visual Classification [3] | also measured |
| --- | --- | --- | --- | --- | --- | --- | --- | --- | --- | --- | --- | --- | --- | --- | --- | --- | --- |
| CC(C=CC=C(C)C=CC1=C(C)CCCC1(C)C)=CC=CC=C(C)C=CC=C(C)C(=O)OC(C)CC(C)C (stereo not drawn) [(12), 4-methyl-2-pentyl beta-apo-8′-carotenoate] | 89 | 79 | 89 | 49 | 66 | 85 | 101 | 74 | 101 | 109 | 95 | 101 | + | 91 | 99 | + |  |
| CC(C=CC=C(C)C=CC1=C(C)CCCC1(C)C)=CC=CC=C(C)C=CC=C(C)C(=O)OC1CCCC1 [(15), cyclopentyl beta-apo-8′-carotenoate] |  |  |  | 50 | 76 | 77 |  |  |  |  | 99 | 100 | ++ | 106 | 99 | ++ | Deposition Rate Target Values % of Controls ([1]; trial H-05/00, 5.0 mg/kg feed): 95%; Ethyl β-apo-8′-carotenoate Equivalents % of Controls ([1]; trial H-05/00, 5.0 mg/kg feed): 95%; Deposition Rate % of Controls ([1]; trial H-05/00, 5.0 mg/kg feed): 95%; Color Fan Value % of Controls (egg yolk; trial H-05/00, Table 8): 116%; Chroma C*ab % of Controls (egg yolk; trial H-05/00, Table 10): 107%; Color Fan Value % of Controls (egg yolk; trial H-05/00, Table 10): 116%; Color Hue h*ab % of Controls (egg yolk; trial H-05/00, Table 10): 101% |
| CC(C=CC=C(C)C=CC1=C(C)CCCC1(C)C)=CC=CC=C(C)C=CC=C(C)C(=O)OC1CCCCC1 [(16), cyclohexyl beta-apo-8′-carotenoate] | 99 | 82 | 99 | 38 | 60 | 44 | 108 | 112 | 108 | 97 | 84 | 103 | (+) | 80 | 95 | + |  |
